The target of the assay is T1, ΔF508-CFTR (Homo sapiens, UniProt P13569, DEL508-508).
T1 construct: expressed in transfected cells; host or cells: HeLa cells, stably transfected (pTracer-based plasmid pTCF-F508del), provided by Pascale Fanen (Inserm U.468)
The assay can be described thus: Iodide efflux (corrector effect) in ΔF508-CFTR HeLa cells after 24 hour pre-treatment. Format: cell-based. The settings on record: ΔF508-CFTR HeLa cells; for cAMP-stimulated radiolabel iodide efflux: 24 hour pre-treatment, compound at 1 μM. The method, then: Cultures were done at 37° C. in a humidified incubator with 5% CO2.
47(4): p. […] Marivingt-Mounir, C, et al., Synthesis, SAR, crystal structure, and biological evaluation of benzoquinoliziniums as activators of wild-type and mutant cystic fibrosis transmembrane conductance regulator channels. […] 47(4): p. […] After washing, cells were incubated with 1 ml of modified Earle's salt solution. After 1 min, the medium was removed to be counted and was quickly replaced by 1 ml of the same medium. This procedure was repeated every 1 min for 8 min. The first three aliquots were used to establish a stable baseline in efflux buffer alone. Medium containing cocktail aiming to increase intracellular cAMP (10 μM forskolin and 30 μM genistein) was used for next aliquots in order to activate CFTR chloride channels. At the end of the incubation, the medium was recovered, and cells were solubilized in 1 N NaOH. The radioactivity was determined using a g-counter (LKB).
t1 and t2 are successive time points.
Data are presented as the mean±S.E. of n separate experiments.
Differences were considered statistically significant using the Student's t test when the p value was less than 0.05.
To test drug correction of ΔF508-CFTR trafficking and function we evaluated halide permeability by a macroscopic assay using a robotic cell-based methodology using the I^− efflux technique. […]

T1 sequence (P13569 with tags, fused parts or gaps DEL508-508): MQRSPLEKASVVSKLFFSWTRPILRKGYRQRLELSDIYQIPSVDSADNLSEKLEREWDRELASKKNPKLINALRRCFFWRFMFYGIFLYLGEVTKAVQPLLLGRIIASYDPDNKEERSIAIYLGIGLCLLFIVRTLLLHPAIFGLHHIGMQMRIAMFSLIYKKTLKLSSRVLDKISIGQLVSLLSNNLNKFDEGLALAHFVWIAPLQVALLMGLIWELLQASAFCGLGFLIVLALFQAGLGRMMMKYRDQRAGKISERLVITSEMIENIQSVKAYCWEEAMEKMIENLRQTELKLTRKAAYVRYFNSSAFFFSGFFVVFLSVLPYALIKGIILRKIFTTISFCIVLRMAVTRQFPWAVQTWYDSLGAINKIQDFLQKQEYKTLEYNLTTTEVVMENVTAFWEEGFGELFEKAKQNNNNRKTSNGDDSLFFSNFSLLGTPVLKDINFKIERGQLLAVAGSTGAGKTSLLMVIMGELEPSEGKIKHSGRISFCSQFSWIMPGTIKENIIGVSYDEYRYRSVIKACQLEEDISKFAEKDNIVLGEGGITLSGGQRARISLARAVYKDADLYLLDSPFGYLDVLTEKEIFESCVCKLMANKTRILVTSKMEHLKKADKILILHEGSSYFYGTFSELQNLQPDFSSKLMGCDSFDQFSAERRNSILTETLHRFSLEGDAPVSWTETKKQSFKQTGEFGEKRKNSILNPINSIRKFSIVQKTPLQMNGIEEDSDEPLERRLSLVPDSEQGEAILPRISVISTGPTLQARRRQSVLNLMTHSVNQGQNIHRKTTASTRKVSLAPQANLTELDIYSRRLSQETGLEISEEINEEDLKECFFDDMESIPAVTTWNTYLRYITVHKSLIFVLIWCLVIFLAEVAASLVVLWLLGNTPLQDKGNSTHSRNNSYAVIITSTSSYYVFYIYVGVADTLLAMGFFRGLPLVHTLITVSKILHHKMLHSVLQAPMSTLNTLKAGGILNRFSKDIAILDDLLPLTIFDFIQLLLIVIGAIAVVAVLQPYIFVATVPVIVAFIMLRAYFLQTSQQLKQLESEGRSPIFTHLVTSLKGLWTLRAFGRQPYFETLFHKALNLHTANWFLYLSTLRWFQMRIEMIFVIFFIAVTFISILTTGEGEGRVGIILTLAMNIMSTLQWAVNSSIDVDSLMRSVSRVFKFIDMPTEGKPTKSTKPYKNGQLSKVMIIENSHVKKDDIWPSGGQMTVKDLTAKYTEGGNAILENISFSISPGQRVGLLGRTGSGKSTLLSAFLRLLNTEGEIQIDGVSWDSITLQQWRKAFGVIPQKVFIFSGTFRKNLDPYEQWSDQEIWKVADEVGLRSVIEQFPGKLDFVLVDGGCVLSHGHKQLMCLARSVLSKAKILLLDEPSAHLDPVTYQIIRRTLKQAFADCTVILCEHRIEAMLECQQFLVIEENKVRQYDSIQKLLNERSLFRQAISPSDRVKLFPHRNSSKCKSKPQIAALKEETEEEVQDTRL

Usually EC50 stands for the concentration that produces a half-maximal response. `O=C(O)c1ccc(C(=O)O)c(C(=O)Nc2ccc3c(c2)Cc2ccccc2-3)c1` [compound 73100, 2-(9H-fluoren-2-ylcarbamoyl)terephthalic acid]: the “cAMP-stimulated radiolabel iodide efflux” value is recorded as “significant increase”. For the same compound, the EC50 (wide range of concentrations) stood at 0.844 µM.

`O=c1nc(SCc2cccc([N+](=O)[O-])c2)[nH]c2nc[nH]c12` [compound 118208, 2-[(3-nitrophenyl)methylsulfanyl]-3,7-dihydropurin-6-one]: the “cAMP-stimulated radiolabel iodide efflux” value was “significant increase”. The “EC50 (iodide efflux)” value (wide range of concentrations) was “could not be precisely determined”.

As to `O=P(O)(CCP(=O)(O)c1ccccc1)c1ccccc1` [compound 407882, 2-[hydroxy(phenyl)phosphoryl]ethyl-phenylphosphinic acid], the “cAMP-stimulated radiolabel iodide efflux” value was “significant increase”. Besides, under “10 μM compared with 1 μM”, the “increase of the effect on iodide efflux when used at 10 μM” value is 3 fold. Under “10 μM”, the “stimulated efflux at 10 μM compared with WT-CFTR” value is reported as “comparable to the value observed for WT-CFTR”. Besides, where the note is “wide range of concentrations”, the EC50 turned out to be 10 µM.

The values are drawn from patent publication US10463639B2, “Compounds as modulators of a mutant CFTR protein and their use for treating diseases associated with CFTR protein malfunction” (INSTYTUT BIOCHEMII I BIOFIZYKI PAN, priority 2010, dated 2019).
